For one series, the system named is PvdQ-like acylase GdnD. Description: Deacylation by acylase GdnD (cell lysate, LC-MS). Type of series: biochemical, Schlegelella brevitalea DSM 7029. Conditions: 100 μL E. coli cell lysate with GdnD, 5 μL 10 mM substrate, 30 °C; 7 and 8: 4 h, 16 h, 27 h; other substrates 16 h; boiled lysate as control. The procedure:
The hydrolysis function of PvdQ-like acylase GdnD was tested. GdnD is predicted to be a periplasmic protein by PSORTb[13]. The collected pellet from 50 mL LB dissolved with 8 mL buffer C (50 mM Tris, 300 mM NaCl, 5 mM MgCl2, pH 7.6), and lysed by cell disruption. Then, one hundred microliter of the cell lysate was incubated with 5 μL 10 mM substrates 7 and 8 for 4 h, 16 h, and 27 h at 30 °C. The negative control was boiled cell lysate. The other substrates (13, 14, 15, 16, and 17) incubated with the cell lysate dealt for 16 h at 30 °C. Then, the reaction was stopped by the addition of the 100 μL MeOH, and the final mixture was checked by LC‒MS analysis (5%‒95% ACN in 15 min) according to the above condition.

A further series concerns tumor lines. Description: MTT cytotoxicity assay, statements on the whole panel. The series is classed as cell-based, human. Conditions: MTT assay, panel of tumor cell lines. The procedure, abridged:
(§1)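 Cells were exposed to compounds and viability was then quantified by MTT assay, per an earlier published method. Panel included leukemia Kasumi, hepatoma HepG-2, gastric SGC-7901 and normal lung epithelial 2B cells.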
A general note: Tetrazolium assays rely on reduction of a dye to a coloured formazan, in cell work by metabolically active cells.

The subject of series [1] is S. brevitalea DSM 7029 wild type. The experiment in a line: Growth curve of DSM 7029 wild type with compounds (Bioscreen C). Type of series: cell-based, Schlegelella brevitalea DSM 7029. Conditions: CYMG medium. The procedure, abridged: (§2)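 CYMG medium inoculated 1:100 from overnight culture with compounds at 0.1 μg/μL; OD600 read hourly for 42 h with shaking. Biofilm quantified at 18 h and 36 h by 0.1% crystal violet staining, 95% ethanol elution, OD600. Pigment secretion measured as OD600 of cell-free supernatant.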

The subject of series [2] is human lung adenocarcinoma cell A549. The experiment in a line: MTT cytotoxicity assay, A549. Type of series: cell-based. Conditions: 24 h. An outline of the steps: (§3)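 Compound cytotoxicity is assessed with the MTT method in human cancer cells and normal 2B lung epithelial cells.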
Another series concerns native host DSM 7029. Description: Inhibition zone test on the native host DSM 7029. Conditions: same method as for the seven tested strains. Type of series: cell-based, Schlegelella brevitalea DSM 7029. The source says: The two human acute lymphoblastic leukemia cells K562 and Kasumi, two human breast adenocarcinoma cells MCF7 and MDA-MB-231, human hepatoma cell HepG-2, human lung adenocarcinoma cell A549, human gastric cancer cell SGC-7901, human colon cancer cell HCT-116, human ovarian cancer cell line SKOV3, or human lung epithelial normal cell 2B were obtained from Beyotime Biotechnology and utilized to test the cytotoxicity of compounds by MTT assays as previous study. The anti-inflammatory effect of the compounds was detected by the influence on the increase in the level of nitric oxide caused by lipopolysaccharide (LPS) based on the classic Griess method. RAW 264.7 cells (Shanghai Institutes for Biological Science) were seeded in 96-well plates and incubated for 24 h. Then, cells were treated with compounds 29, 29a, 31, and 31a (0-80 μM) for 30 min, followed by co-treatment with LPS ([…]) for another 24 h. The Nitric Oxide assay kit with Griess reagents (Beyotime, Lot: S0021, Shanghai, China) was used to examine cellular supernatant nitrite accumulation, which represents cellular NO levels. The OD value of 540 nm absorbance was detected with a microplate reader. Their authentication in the laboratory was performed regularly based on morphology and gene/protein expression. […]

The test system of series [3] is S. brevitalea DSM 7029 wild type. Description: Biofilm formation of DSM 7029 wild type with compounds (crystal violet). The series is classed as cell-based, Schlegelella brevitalea DSM 7029. The procedure, abridged: as §2
Series [4] has as its system human hepatoma cell HepG-2. Description: cells. The series is classed as cell-based. Conditions: 24 h. The procedure, abridged:
(§4)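 An MTT-based assay, run as in prior work, gives compound cytotoxicity here. The tested lines undergo routine authentication through morphology and gene/protein expression checks.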

Series [5] has as its system human gastric cancer cell SGC-7901. The experiment in a line: cells. Type of series: cell-based. Conditions: 24 h. An outline of the steps: as §1
Series [6] relates to human breast adenocarcinoma cells MDA-MB-231. Description: cells. The series is classed as cell-based. Conditions: 24 h. The procedure, abridged:
as §3

Series [7] deals with human acute lymphoblastic leukemia cells K562. The experiment in a line: cells. Conditions: 24 h. The series is classed as cell-based. The procedure, abridged: as §4
For series [8], the system named is human colon cancer cell HCT-116. Description: cells. Type of series: cell-based. Conditions: 24 h. An outline of the steps: as §3
For series [9], the system named is human lung epithelial normal cell 2B. The experiment in a line: cells. Type of series: cell-based. Conditions: 24 h. An outline of the steps:
as §4

For series [10], the system named is human breast adenocarcinoma cells MCF7. The experiment in a line: cells. The series is classed as cell-based. Conditions: 24 h. An outline of the steps:
as §4

Setting [11] is: relative to wild type treated with H2O = 100%, crystal violet 0.1%, OD600, mean of n = 3.

The values below come from publication PMC10587159, “Biosynthesis and engineering of the nonribosomal peptides with a C-terminal putrescine” (Nature Communications, 2023).

Entries after “also recorded” stand apart in the source; their conditions may differ. Non-standard residues stand in square brackets, D forms with d. Residues, ends and D or L forms follow the SMILES beside them. *: point of attachment. Lauroyl = CCCCCCCCCCCC(=O)*; NH(CH2)4NH2 = NCCCCN* A value given as a limit tells only on which side of the number the result lay.

One may read the IC50 as the concentration that gives 50% inhibition. High values mean a need for much substance, low ones inhibition by little substance. `CCCCCCCCCCCC(=O)N[C@H](CCSC)C(=O)N[C@H](CC(N)=O)C(=O)N1CCC[C@H]1C(=O)N[C@H](C(=O)N[C@H](Cc1ccccc1)C(=O)N1CCC[C@H]1C(=O)N[C@@H](Cc1c[nH]c2ccccc12)C(=O)N[C@@H](C(=O)N[C@@H](C)C(=O)N[C@H](C)C(=O)N[C@@H](CO)C(=O)N[C@@H](C)C(=O)NCCCCN)C(C)C)C(C)C` [Compound 7, Glidonin G] (Lauroyl-[dM][dN]PV[dF]PW[dV]A[dA]SA-{NH(CH2)4NH2}): the “deacylation by GdnD, nonacylated product by LC-MS” value in the series with PvdQ-like acylase GdnD is “nonacylated products 1 and 2 were detected”. In addition, the “cytotoxic / antitumor activity in words” value in the series on tumor lines was “broad-spectrum cytotoxicity”. Besides, in series [1] (compound 0.1 μg/μL, OD600 every hour for 42 h, Bioscreen C), the “effect on growth of DSM 7029 wild type in words” value is “weak inhibition of growth; also recorded: obviously inhibit the growth”. Also, in series [1] (control OD600 0.6), the “OD600 of wild type DSM 7029 with addition of compounds” value amounted to 0.4. In addition, the IC50 in series [2] is 7.64 ± 1.11 µM; in [4], 8.3 ± 0.57 µM; in [5], > 20 µM; in series [6], 4.76 ± 0.79 µM; in [7], 13.5 ± 4.44 µM; in [8], > 20 µM. Besides, the IC50 in series [9] is 11.7 ± 1.5 µM; in series [10], > 20 µM. Besides, the “inhibition of native host DSM 7029, inhibition zone method” value with native host DSM 7029 was “no inhibition”. For the same compound, in series [3] (crystal violet staining), the “effect on biofilm formation of DSM 7029 wild type in words” value is reported as “increased biofilm formation”. In addition, the “biofilm formation 18 h, Average” value in series [3] (setting [11]) was found to be 152.732%. The “biofilm formation 36 h, Average” value in series [3] (setting [11]) came out at 138.926%.
